Assay [1] can be described thus: Inhibition of Escherichia coli DdlB.
The subject of assay [2] is Escherichia coli. Briefly: Antibacterial activity against Escherichia coli SM1411 after 16 hrs broth microdilution method. Type of assay: functional. (Dilution methods test growth across graded concentrations, often in twofold steps.)
Assay [3] concerns Escherichia coli. Briefly: Inhibition of Escherichia coli DdlB at 250 uM preincubated for 15 mins before substrate addition measured after 20 mins.
For assay [4], the system named is Staphylococcus aureus. Briefly: Antibacterial activity against Staphylococcus aureus 8325-4 after 16 hrs broth microdilution method. Particulars: 8325-4, 16 h. Type of assay: functional.
Assay [5] relates to Escherichia coli. Briefly: Antibacterial activity against Escherichia coli 1411 after 16 hrs broth microdilution method. Type of assay: functional.

Molecules are shown by their SMILES. ≈ marks a conversion by molar mass, not a printed value. Calls of active or inactive are those of the source.

For the compound `C[C@@H](N)C(=O)NP(=O)(O)O`, in assay [1], the Ki (commonly the dissociation constant of the complex between target and ligand, obtained from inhibition or displacement) amounted to 50 µM.

Regarding `COc1ccc2c(c1)c1c(C)c3cnccc3c(C)c1n2CCCN`, the MIC – broadly, the smallest concentration in the dilution series that meets the test's criterion for growth inhibition – in assay [2] came to 8 mg/L (≈ 24 µM); in assay [4] it was 32 mg/L (≈ 96 µM); in assay [5], 32 mg/L (≈ 96 µM). In addition, the result in assay [3] was Active. In addition, the Ki in assay [1] stood at 11 µM.

In turn, `C/C(O)=C(\C#N)C(=O)Nc1cc(Br)ccc1Br` yielded a Ki in assay [1] of 185 µM.

For the compound `N[C@@H]1CONC1=O` [CYCLOSERINE], the Ki in assay [1] is 22 µM.

In turn, `N[C@@H](C[C@H]1C[C@]1(C(=O)O)c1ccccc1)C(=O)O` showed a Ki in assay [1] of 12.5 µM.

As for `CS[C@@H](CP(=O)(O)[C@@H](C)N)C(=O)O`, in assay [1], the affinity corresponds to a Ki of 4 µM.

On to `COc1ccc2nc3cc(Cl)ccc3c(Nc3ccc(O)c(CN4CCN(C)CC4)c3)c2c1`, for which the minimal inhibitory concentration (MIC) in assay [2] was found to be 64 mg/L (≈ 138 µM); in assay [4] it was 32 mg/L (≈ 69.1 µM). In assay [3], the outcome was Active. The same compound registered a Ki in assay [1] of 218 µM.

`O=C(/N=N/C(=O)Nc1ccc(Cl)cc1)NCc1cccnc1` gave a Ki in assay [1] of 33 µM.

Compound `CC(C)(CCl)C(=O)Nc1ccc(C(F)(F)F)cc1` showed a Ki in assay [1] of 4 µM.

(Values after ChEMBL document CHEMBL1140843, “Discovery of new inhibitors of D-alanine:D-alanine ligase by structure-based virtual screening” (J Med Chem, 2008).)
